Calls of active or inactive are those of the source.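 How the source made its calls: active means IC50 at or below 20 µM in the dose response confirmation; inactive means the rest.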
Biological target: Low molecular weight phosphotyrosine protein phosphatase (Homo sapiens) (UniProt P24666)
Test: inhibition of human LMPTP-A enzyme – biochemical, fluorescence intensity, SAR follow-up (AID 686962)
Conditions: recombinant LMPTP-A, OMFP fluorogenic substrate, 50 min

Low molecular weight phosphotyrosine protein phosphatase (Homo sapiens), sequence (P24666 whole entry, looked up): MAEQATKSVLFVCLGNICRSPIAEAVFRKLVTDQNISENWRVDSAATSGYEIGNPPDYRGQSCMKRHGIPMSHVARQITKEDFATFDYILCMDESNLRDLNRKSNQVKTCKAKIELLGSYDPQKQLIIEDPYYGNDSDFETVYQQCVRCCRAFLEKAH

IC50	SMILES
10.6 µM	Fc1ccccc1-c1nc(NC2CCCC2)c2ccccc2n1
inactive	O=C(OCCNc1nc(-c2ccccc2)nc2ccccc12)c1ccncc1
17.8 µM	c1ccc(-c2nc(NCCCn3ccnc3)c3ccccc3n2)cc1
18.1 µM	CC(C)OCCCNc1nc(-c2ccccc2)nc2ccccc12
2.86 µM	c1ccc(-c2cc(NCCN3CCCCC3)c3ccccc3n2)cc1
19 µM	c1ccc(-c2nc(NCc3cccnc3)c3ccccc3n2)cc1
11.1 µM	c1ccc(-c2cc(N3CCCCC3)c3ccccc3n2)cc1

The next lines start with the compound.

SMILES	IC50
O=C(OCCNc1nc(-c2ccccc2)nc2ccccc12)c1cccnc1	inactive
Fc1ccccc1-c1nc(NCCCN2CCOCC2)c2ccccc2n1	inactive
Cc1c(CCC(=O)O)c(=O)oc2c(C)c(OCc3ccccc3Cl)ccc12	7.41 µM
Cc1ccc(-c2nc(NCCN3CCOCC3)c3ccccc3n2)cc1	18.8 µM
COc1ccccc1CNc1ncnc2ccsc12	> 80 µM (inactive)
Cc1ccc(-c2nc(NCc3cccnc3)c3ccccc3n2)cc1	12.9 µM
CCc1nc(N)nc(N)c1-c1ccc(Cl)cc1	14.7 µM
Nc1nc(N)c(Cc2ccc(Cl)cc2Cl)c(N)n1	11.5 µM
Cc1cccc(-c2nc(NCCCN3CCOCC3)c3ccccc3n2)c1	13.5 µM
Clc1cccc(Cl)c1Cn1cnc(=NCc2ccco2)c2[nH]cnc21	10.2 µM
